# From the METLIN SMRT retention time set (Domingo-Almenara et al. 2019)
# Test: gradient 5% acetonitrile 3 min, to 50% in 2 min, to 85% in 15 min, held 3 min, 100 µL/min
# Conditions: column: Zorbax Extend-C18 2.1 x 50 mm; eluents: water / acetonitrile, 0.1% formic acid
# Method in brief: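 Over 3 months, pure standards in mixtures of ~100 molecules were run by HPLC coupled to a quadrupole time-of-flight mass spectrometer in positive and negative ionization mode. The column was a Zorbax Extend-C18 (2.1 × 50 mm, 1.8 μm) at 100 μL/min, eluted with water and acetonitrile each holding 0.1% formic acid, with 40 μL dead and 900 μL dwell volumes. Retention time was determined from adduct peaks chosen by software and checked manually.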
row,SMILES,RP-LC retention time
1,COCCc1noc(C2CN(C(=O)c3cnc(C)cn3)C2)n1,636 s
2,Cc1cc(C)cc(N2C=NS(=O)(=O)c3cccnc32)c1,837 s
3,CCn1cnc2cc(-c3noc(CNC(=O)Cc4ccc(Cl)cc4)n3)ccc21,658 s
4,O=C(Cn1c(=O)c2cccn2c2ccccc21)NC1CC1,688 s
5,Cc1ccc(-c2nc3ncccn3c2Nc2ccc(C)c(C)c2)cc1,848 s
6,CN1C(=O)c2ccccc2C(C(=O)NCc2ccccn2)C1c1cccs1 (stereo not drawn),607 s
7,Cc1nc(-c2csc(S(=O)(=O)N3CCCC(C(=O)N4CCc5ccccc5C4)C3)c2)no1 (stereo not drawn),977 s
8,Cc1noc(C)c1-c1ccc(S(=O)(=O)NCCc2ccc(S(N)(=O)=O)cc2)cc1,740 s
9,O=C(CCC1CCN(c2cc(NC3CC3)ncn2)CC1)NCc1cc(F)ccc1F,666 s
10,Cc1ccc(S(=O)(=O)N2CCC(c3nc(-c4ccccn4)no3)CC2)cc1C,970 s
11,COc1ccc(Cl)cc1NC(=O)N1CCN(c2ccc3nncn3n2)CC1,667 s
12,O=C(Nc1ccccc1)N1CCC(n2c(-c3ccoc3)nc3cccnc32)C1 (stereo not drawn),712 s
13,COc1ccc(Cl)cc1S(=O)(=O)NC1CCc2nn(C)c(=O)n2CC1 (stereo not drawn),677 s
14,Cc1cccc(-c2noc(C3CCCN3S(=O)(=O)c3cccc(Cl)c3C)n2)c1 (stereo not drawn),1310 s
15,CN1C(=O)C2(c3ccccc31)C(C(=O)Nc1ccc(Br)cc1F)CC1CCCN12 (stereo not drawn),674 s
16,CCCn1nc(CNC(=O)c2ccc(C#N)cc2)c2ccccc21,844 s
17,Cc1nnc(NC(=O)CSc2nnc(C3COc4ccccc4O3)o2)s1 (stereo not drawn),699 s
18,COCc1nnc(NC(=O)C2CCN(C(=O)c3ccccc3Cl)CC2)s1,670 s
19,CCOC(=O)Cc1ccc(NC(=O)NC2CCN(c3ccc(F)cc3)C2=O)cc1 (stereo not drawn),812 s
20,CCOC(=O)CCc1c(C)nn(-c2cc(N(C)C)ncn2)c1C,834 s
21,O=C(Cc1c[nH]c2ccccc12)N1CCN(C(=O)c2cc(-c3cccnc3)n[nH]2)CC1,610 s
22,Cc1ccc(-c2nc3ncccn3c2Nc2ccc(C)cc2C)cc1,838 s
23,Cc1nc2ccccc2c(=O)n1Cc1noc(C(=O)NCCC2=CCCCC2)n1,915 s

row,SMILES,RP-LC retention time
1,Cc1cc(N2CCN(c3ccccn3)CC2)n2nc(C)c(-c3ccc(F)cc3)c2n1,664 s
2,CCn1nccc1-c1cccc(-c2noc(CNS(=O)(=O)c3ccccc3)n2)c1,884 s
3,Cc1cc(C)n(CC(=O)N2CCC[C@H]2c2nc(-c3ccccc3)n[nH]2)n1,641 s
4,CC1=C(c2ccccc2)S(=O)(=O)N=C1N1CCCN(C(=O)c2ccccn2)CC1,693 s
5,Cc1nc(CNC(=O)C2CCN(C(=O)NCCc3ccccc3)CC2)cs1,660 s
6,COc1ccc(-c2cc3n(n2)CCCN(C(=O)c2ccc4nc[nH]c4c2)C3)cc1,614 s
7,CC1(C)NC(=O)N(CCC(=O)N2CCCn3nc(-c4ccc(F)cc4)cc3C2)C1=O,683 s
8,COCCNC(=O)NC1CCN(C2=NS(=O)(=O)C(c3cccc(Cl)c3)=C2C)CC1,718 s
9,Cc1ccc(C2c3cc(OCC(=O)N4CCCC4)ccc3CCN2C(=O)C2CC2)cc1 (stereo not drawn),824 s
10,C(=C\c1ccccn1)/c1ccccn1,590 s
11,CCN1C(=O)c2c(C(=O)NCc3ccc(Cl)cc3)ncn2CC1(C)C(=O)NC1CCCC1 (stereo not drawn),798 s
12,O=S(=O)(c1ccc(-c2nnc(C3CC3)o2)o1)N1CCCC1,771 s
13,N#Cc1ccccc1OCC(O)CNCCNC(=O)Nc1ccccc1 (stereo not drawn),696 s
14,CC(C)Cn1cc(CCNS(=O)(=O)c2ccc(Cl)cc2)c2cccnc21,993 s
15,CCc1ccc2[nH]c3c(c(=O)c2c1)CN(CC(=O)NCc1cccc(Cl)c1)CC3,642 s
16,CC(C)OC(=O)COC(=O)c1cn(-c2cccc(F)c2)c(=O)c2ccccc12,1110 s
17,CC(C)c1ccc(CNC(=O)CN2CCN(Cc3ccc(F)cc3)C2=O)cc1,933 s
18,CCOc1ccc(-c2cc3c(=O)n(Cc4nc(-c5ccc(C)cc5)no4)ncn3n2)cc1,784 s
19,CN(C)C(=O)c1n[nH]c2c1CN(C(=O)c1ccccc1F)CC2,618 s
20,CCc1ccc(NC(=O)c2cc(=O)n(C)c3c2c(=O)n(C)c(=O)n3C)cc1,870 s
21,CC(C)N1C(=O)c2cccnc2Sc2cc(C(=O)NCC3CCCO3)ccc21 (stereo not drawn),695 s
22,Cc1cc(F)ccc1NS(=O)(=O)c1ccc(-c2nnc(C3CCC3)o2)o1,963 s
23,CCOc1ccccc1CNC(=O)C1CCN(S(=O)(=O)c2cn(CC)cn2)CC1,739 s

row,SMILES,RP-LC retention time
1,COCCC1CCN(C(=O)c2nccc3ccccc23)CC1,719 s
2,Cc1csc(COc2ccc(C(=O)NC(C)CCc3ccccc3)cc2)n1 (stereo not drawn),595 s
3,CSc1cccc(NC(=O)N2CCN(C)CC2)c1,647 s
4,COc1ccccc1NC(=O)C1CCN(c2cc(N3CCCCC3)ncn2)CC1,700 s
5,Cc1cc(C)cc(NC(=O)N2CCCC(C)(C(=O)NCc3ccccc3C)C2)c1 (stereo not drawn),897 s
6,Cc1cccc(-c2nnc(-c3cccc(S(=O)(=O)N4CCCCC4)c3)o2)c1,1140 s
7,COc1ccc(CCNC(=O)Cn2cnc(C)cc2=O)cc1OC,574 s
8,O=S(=O)(c1ccccc1)N1CCC(c2noc(C3CC3)n2)C1 (stereo not drawn),866 s
9,CCOC(=O)C1CCN(c2nc(-c3ccc(OC)cc3)no2)CC1,981 s
10,COC(=O)C1=C(C)NC2=C(C(=O)c3ccccc32)C1c1cccc(OC)c1 (stereo not drawn),917 s
11,CC(C)(C)C(=O)Nc1ccc(NC(=O)C(C)(C)C)cc1,838 s
12,COCC(C)(O)CNC(=O)C(=O)NCCc1ccccc1 (stereo not drawn),660 s
13,COc1cc([C@@H]2c3cc4c(c(O)c3C[C@H]3COC(=O)[C@@H]32)OCO4)cc(OC)c1OC,620 s
14,Cc1ccc(OCC(=O)Nc2nnc(C3CC(=O)N(c4ccccc4)C3)o2)cc1 (stereo not drawn),765 s
15,CC(C)C[C@H](NC(=O)Cn1cnc2ccccc2c1=O)C(=O)O,649 s
16,COCC(=O)Nc1cnc(N2CCCCC2)nc1,683 s
17,COc1ccc(CNC(=O)c2nnn(Cc3nc(-c4ccc(C)cc4)oc3C)c2N)cc1OC,935 s
18,CC(CNC(=O)CCn1c(N2CCCC2)nc2ccsc2c1=O)c1ccccc1 (stereo not drawn),819 s
19,COc1ccc(-c2noc(-c3ccc(NC(=O)c4cccs4)cc3)n2)cc1,1140 s
20,CC1CCN(C(=O)C2=NN(C)c3ccccc3S2(=O)=O)CC1,799 s
21,COc1ccc(OCC(=O)N2CCc3c(c(-c4nnc(-c5ccccc5Cl)o4)nn3C)C2)cc1,1010 s
22,CCOC(=O)c1csc(NC(=O)c2ccc3ncsc3c2)n1,726 s
